Measured values reported in patent US6369096B1, “Benzyloxy prodigiosine compounds” (Pharmacia & Upjohn S.p.A., priority 1998, dated 2002).
Like-named read-outs stand apart in the source and are kept apart here.

Experiments:
[1] = system: Th murine cells D10-G4.1 (ATCC TIB 224); test: Inhibition of IL-2 proliferation induced activity (3H-TdR uptake); type: cell-based; settings: for 3HTdR uptake: mean cpm from triplicate wells, 48 h
Procedure: The Th murine cells D10-G4.1 (ATCC TIB 224) are IL-2 dependent for their growth. They are cultured in complete RPMI 1640 medium enriched with rhIL-2 (6 ng/ml) and ConA (6 ng/ml). For testing the inhibitory effects of the compounds of the invention on IL-2 activity, D 10 cells are washed twice with complete medium, resuspended at 10^5 cells/ml in the same medium and triplicately distributed (10^4 cells/well) in flat bottomed 96 well plates. […] and […] at different concentrations are simultaneously added to the cells. The cultures are then incubated at 37° C. in a humidified 5% CO2 incubator for 48 h, the last 18 h in the presence of 0.2 µCi of ^3H-TdR. Uptake of 3H-TdR in the cells (cpm) is taken as a measure of cell proliferation.

[2] = In vivo bioavailability evaluation (pharmacokinetics and oral bioavailability); settings: 10 mg/kg, male Lewis rat, iv 1 mg salt/kg, oral 10 mg salt/kg, read-out: F % (bioavailability)
Procedure: Aim of the study is to determine the pharmacokinetics and the oral bioavailability of the instant prodigiosine compounds in rats.
Species/strain/sex: rat/Lewis/male
No. formulations: 1 oral; 1 intravenous
No. animals/formulation: 3+2 controls (+an ulterior rat treated with the iv formulation); total 9
Dosages: iv: 1 mg salt/kg; oral: 10 mg salt/kg
Vehicles: iv: a solution at the conc. of 5 mg/ml in PEG 400/Tween 80 (6:1 v:v) was prepared, then diluted with dextrose at the final concentration of 0.5 mg/ml; oral: a solution at the concentration of 5 mg/ml in Cremophor ELP/EtOH abs (6.5:3.5 v:v) was prepared, then diluted with saline at the final concentration of 1 mg/ml
Experimental: Three cannulated rats/formulation were treated. One rat/formulation was only treated with the vehicle, as basal sample. The intravenous administration was given into the caudal vein as bolus; the oral administration by gastric gavage as solution. […] Plasma was immediately obtained by centrifugation (10000 rpm for 3 min) and stored in labelled tubes at −30° C. till analysis.
Analytical assay: the extraction of the compounds was performed by protein precipitation by adding 100 mcl of acetonitrile to 25 mcl of plasma. The concentrations of the compounds (as free bases) in plasma were determined by LC-MS method. Column: APEX CN RP 5 mc, 10×4 mm (Jones chromatography); mobil phase: 70% acetonitrile/30% 1 mM ammonium formate +0.01% triethylamine adjusted to pH 2.0 with formic acid; flow rate: 1 ml/min; injection volume: 10 mcL; oven temperature: 45° C.; MS detection by APCI using MRM positive ion; MRM transition: 330 m/z>239 m/z, retention time: 1.4 min; LLOQ: 5.03 ng/ml; ULOQ: 10060 ng/ml. Bioavailability is expressed in following Table 1 as F %. ClogP is a lypophylic index, related to octanol/water partition coefficient.

[3] = system: female C57 Bl/6 mice primed and challenged with sheep red blood cells (SRBC); test: DTH (Delayed-Type Hypersensitivity) assay; type: in vivo; settings: given daily for six days, dose reducing footpad thickness increase by 30% vs controls
Procedure: The immunosuppressive activity of the compounds of the invention was evaluated in vivo by DTH (Delayed-Type Hypersensitivity) assay. According to the test, sheep red blood cells (SRBC) (1×10^5 cells) suspended in 500 mcL saline, were injected i.v. into the tail vein of female C57 Bl/6 mice (8-9 week old). Five days later 1×10^8 SRBC suspended in 50 mcL saline were injected into the left hind footpad. The increase in footpad thickness was measured with a dial micrometer 24 h after challenge. The test compounds were given daily for six days at different doses starting on the day of priming. Activity was expressed as ED30 (dose able to reduce by 30% the thickness increase compared to controls).

Row | SMILES | % inhibition vs vehicle ([1]; 1 ng/ml) [%] | 3HTdR uptake ([1]; 1 ng/ml) [cpm] | % inhibition vs vehicle ([1]; 3 ng/ml) [%] | 3HTdR uptake ([1]; 3 ng/ml) [cpm] | % inhibition vs vehicle ([1]; 10 ng/ml) [%] | 3HTdR uptake ([1]; 10 ng/ml) [cpm] | % inhibition vs vehicle ([1]; 30 ng/ml) [%] | 3HTdR uptake ([1]; 30 ng/ml) [cpm] | bioavailability ([2]; plasma) [%] | DTH ED30 iv [3] [mg/kg] | DTH ED30 os [3] [mg/kg] | bioavailability ([2]; in vivo) [%]
1 | CC1=NC(=Cc2[nH]c(-c3ccc[nH]3)cc2OCc2ccccc2)C=C1.Cl [PNU 168727, 4-benzyloxy-5-[(5-methyl-2H-pyrrol-2-ylidene)methyl]-2,2′-bi-1H-pyrrole, hydrochloride] | 5 | 58245 | 11 | 54594 | 87 | 8100 | 100 | 52 | 35 | 1.7 | 5.3 | 
2 | CCCCCC1=NC(=Cc2[nH]c(-c3ccc[nH]3)cc2OCc2ccccc2)C=C1.Cl [PNU 169417, 4-benzyloxy-5-[(5-pentyl-2H-pyrrol-2-ylidene)methyl]-2,2′-bi-1H-pyrrole, hydrochloride] |  |  |  |  |  |  |  |  | 18 | 1.1 | 4.4 | 
3 | CCCCCCCCCCCC1=NC(=Cc2[nH]c(-c3ccc[nH]3)cc2OCc2ccccc2)C=C1.Cl [PNU 156804, 4-benzyloxy-5-[(5-undecyl-2H-pyrrol-2-ylidene)methyl]-2,2′-bi-1H-pyrrole, hydrochloride, reference compound] |  |  |  |  |  |  |  |  |  | 0.44 | 18.7 | 7
